Laboratory results published in patent US20260183262A1, “RNA-BINDING MOTIF PROTEIN 39 (RBM39) DEGRADERS FOR TREATMENT OF CANCERS” (RECURSION PHARMACEUTICALS, INC., priority 2022, published 2026).

Tests used:
OVCAR3 cells = assay: CellTiter-Glo cell viability assay in OVCAR3 cell line; format: cell-based, human; details: 72 h
Method: • Cell culture: OVCAR3 is a human ovarian cancer cell line that is BRCA-proficient and HRD negative. Pharmaron in China acquired this cell line for in vitro testing. OVCAR3 human ovarian tumor cells were maintained in vitro with RPMI-1640 (Glutamax)+0.01 mg/ml insulin+20% FBS+1% PS • Cell Seeding: Cells were harvested from flask into cell culture medium and counted. Cells were diluted with culture medium for below cell densities and 8000 OVCAR cells were plated per well in a 384-well plate (PerkinElmer, Cat. #6007680), using electronic multichannel pipette in 40 μL. For the low control wells, 40 μL PBS was added. […] Plates were covered with lid and spun at 1 min/1000 rpm followed by incubation overnight at 37° C., 5% CO2. • Compound Time: SR4835 and THZ531 were dissolved at 10 mM stock solution and diluted in a 3-fold, 9-point diluted series. Cells were treated with 40 nL of SR4835 and THZ531 by plate reformat Echo550 followed by incubation at 37° C. for 72 h in a CO2 incubator. For the high control, 40 nL DMSO was added. • Readout: CellTiter-Glo@ 2.0 Reagent (Promega, G9242) was removed from the fridge and equilibrated at RT(23° C.) for 60 minutes. Plates were removed from the incubator and allowed to equilibrate to room temperature, for at least 15 minutes. 30 μL CellTiter-Glo® 2.0 Reagent was added to the assay plates and allowed to sit for 30 minutes prior to reading. Luminescence signal was read on Envision. • Calculation: Cell viability (% DMSO control) was calculated using the following equation
• Cell culture: OVCAR3 is a human ovarian cancer cell line that is BRCA-proficient and HRD negative. Pharmaron in China acquired this cell line for in vitro testing. OVCAR3 human ovarian tumor cells were maintained in vitro with RPMI-1640 (Glutamax)+0.01 mg/ml insulin+20% FBS. • Cell Seeding: Cells were harvested from flask into cell culture medium and counted. Cells were diluted with culture medium for below cell densities and 8000 OVCAR cells were plated per well in a 384-well plate (PerkinElmer, Cat. #6007680), using electronic multichannel pipette in 50 μL For the low control wells, 50 μL PBS was added. […] Cells were treated with E7820 and indisulam by plate reformat Echo software and spun 1 min/1000 rpm followed by incubation at 37° C. for 72 h in a CO2 incubator. • Readout: CellTiter-Glo@ 2.0 Reagent (Promega, G9242) was removed from the fridge and equilibrated at RT (23° C.) for 60 minutes. […] 40 μL CellTiter-Glo® 2.0 Reagent was added to the assay plates, and spun 1 min/1000 rpm, then allowed to sit for 20 minutes prior to reading. Luminescence signal was read on Envision. • Calculation: Cell viability (% DMSO control) was calculated using the following equation

CDK12+Cyclin K = target: T1, CDK12+Cyclin K (Homo sapiens, UniProt Q9NYV4); assay: NanoBRET target engagement intracellular kinase assay in HEK293; format: cell-based; details: HEK293 cells transfected with CDK12-NanoLuc and CCNK; up to 10 μM
T1 construct: host or cells: HEK293 (transient transfection, FuGENE HD)
Method: • Cell culture: CDK12 NanoBRET assay kit was obtained from Reaction Biology with experiment performed by Pharmaron. HEK293 cells were cultured using 90% DMEM with 10% FBS. Cells were cultivated in T-75 flasks in a cell culture incubator set at 37° C., 5% CO^2, 95% relative humidity. Once cells reached 80-90% confluence, they were detached and split. Cultivated cells in T-75 flasks were rinsed with 5 mL PB and aspirated off. 1.5 mL trypsin was added and incubated at 37° C. for approximately 5 minutes or until the cells detached and started to float. Trypsin was inactivated by adding excess serum containing medium. • Transient Transfection of HEK293 Cells: Cell culture medium was removed from cell flask by aspiration and trypsinized, allowing cells to dissociate from flask. Trypsin was neutralized using cell culture medium and centrifuged at 200×g for 5 minutes to pellet cells. Medium was aspirated and resuspended in assay medium consisting of 99% Opti-MEM, reduced serum medium with no phenol red and 1% FBS. Density was adjusted to 2×10^5 cells/ml using assay medium. 10 μg/ml solution of DNA in Opti-MEM was prepared consisting of 9 μg/mL of CCNK, 1 ug/mL of Kinase-NanoLuc fusion vector DNA CDK12, and 1 mL of Opti-MEM. This solution was mixed thoroughly. 30 μl of FuGENE HD Transfection Reagent was added into each milliliter of DNA mixture to form lipid: DNA complex. Mixture was inverted 5-10 times and incubated at ambient temperature for 20 minutes to allow complexes to form. In a sterile, conical tub, 1 part of lipid DNA complex (1 mL) was mixed with 20 parts of HEK293 cells (20 mL) in suspension at 2×10^5 cells/mL. Tube was mixed gently by inversion 5 times. […] Lastly, 20 μL of this 3× complete substrate plus inhibitor solution was added to each well of the 384-well plate and incubated for 2-3 minutes at room temperature and read the plate on the Envision. • Calculation: BRET Ratio was calculated as follows: […]

[1] = system: RNA-binding motif protein 39 (RBM39) CRISPR/Cas9 knockout; assay: High content phenotypic CRISPR/Cas9 screen in HUVEC cells: RBM39 knockout phenocopy; format: cell-based, human; details: wild-type HUVEC cells; machine vision analysis
Excerpt: (§1) As disclosed herein, numerous small molecules have been investigated for HRD deficient and PARP inhibitor resistant cancers and it was confirmed that E7820 is efficacious alone or in combination with PARP inhibitors in preclinical mouse cancer models. To select E7820 as a potential therapeutic for this disease, a high content phenotypic whole genome arrayed CRISPR/Cas9 screen was developed in HUVEC cells to identify cellular and structural changes associated between the genetic knockout of human genes. This high dimensional biological data set of single gene knockout phenotypes was then compared to the cellular and structural changes arising from the treatment of over 200,000 small molecules in intron-controlled wild-type HUVEC cells. […] RBM39 degraders, such as these aryl sulfonamides, may therefore be used to treat cancers where CDK12 is a suitable therapeutic target, for example, cancers where patients develop resistance to PARP inhibitors or cancers with HRD negative/HR-proficient tumors. Similar to depletion of CDK12, RBM39 degraders may be used to induce a synthetic lethality phenotype when combined with DDR inhibitors such as PARP inhibitors, thus enabling treatment of patients who would not derive benefit from treatment with the DDR inhibitor in the absence of an RBM39 degrader.

CDK12 knockout = assay: High content phenotypic CRISPR/Cas9 screen in HUVEC cells: CDK12 knockout phenocopy; format: cell-based, human; details: wild-type HUVEC cells; machine vision analysis
Excerpt: as §1

T1 sequence (Q9NYV4 whole entry): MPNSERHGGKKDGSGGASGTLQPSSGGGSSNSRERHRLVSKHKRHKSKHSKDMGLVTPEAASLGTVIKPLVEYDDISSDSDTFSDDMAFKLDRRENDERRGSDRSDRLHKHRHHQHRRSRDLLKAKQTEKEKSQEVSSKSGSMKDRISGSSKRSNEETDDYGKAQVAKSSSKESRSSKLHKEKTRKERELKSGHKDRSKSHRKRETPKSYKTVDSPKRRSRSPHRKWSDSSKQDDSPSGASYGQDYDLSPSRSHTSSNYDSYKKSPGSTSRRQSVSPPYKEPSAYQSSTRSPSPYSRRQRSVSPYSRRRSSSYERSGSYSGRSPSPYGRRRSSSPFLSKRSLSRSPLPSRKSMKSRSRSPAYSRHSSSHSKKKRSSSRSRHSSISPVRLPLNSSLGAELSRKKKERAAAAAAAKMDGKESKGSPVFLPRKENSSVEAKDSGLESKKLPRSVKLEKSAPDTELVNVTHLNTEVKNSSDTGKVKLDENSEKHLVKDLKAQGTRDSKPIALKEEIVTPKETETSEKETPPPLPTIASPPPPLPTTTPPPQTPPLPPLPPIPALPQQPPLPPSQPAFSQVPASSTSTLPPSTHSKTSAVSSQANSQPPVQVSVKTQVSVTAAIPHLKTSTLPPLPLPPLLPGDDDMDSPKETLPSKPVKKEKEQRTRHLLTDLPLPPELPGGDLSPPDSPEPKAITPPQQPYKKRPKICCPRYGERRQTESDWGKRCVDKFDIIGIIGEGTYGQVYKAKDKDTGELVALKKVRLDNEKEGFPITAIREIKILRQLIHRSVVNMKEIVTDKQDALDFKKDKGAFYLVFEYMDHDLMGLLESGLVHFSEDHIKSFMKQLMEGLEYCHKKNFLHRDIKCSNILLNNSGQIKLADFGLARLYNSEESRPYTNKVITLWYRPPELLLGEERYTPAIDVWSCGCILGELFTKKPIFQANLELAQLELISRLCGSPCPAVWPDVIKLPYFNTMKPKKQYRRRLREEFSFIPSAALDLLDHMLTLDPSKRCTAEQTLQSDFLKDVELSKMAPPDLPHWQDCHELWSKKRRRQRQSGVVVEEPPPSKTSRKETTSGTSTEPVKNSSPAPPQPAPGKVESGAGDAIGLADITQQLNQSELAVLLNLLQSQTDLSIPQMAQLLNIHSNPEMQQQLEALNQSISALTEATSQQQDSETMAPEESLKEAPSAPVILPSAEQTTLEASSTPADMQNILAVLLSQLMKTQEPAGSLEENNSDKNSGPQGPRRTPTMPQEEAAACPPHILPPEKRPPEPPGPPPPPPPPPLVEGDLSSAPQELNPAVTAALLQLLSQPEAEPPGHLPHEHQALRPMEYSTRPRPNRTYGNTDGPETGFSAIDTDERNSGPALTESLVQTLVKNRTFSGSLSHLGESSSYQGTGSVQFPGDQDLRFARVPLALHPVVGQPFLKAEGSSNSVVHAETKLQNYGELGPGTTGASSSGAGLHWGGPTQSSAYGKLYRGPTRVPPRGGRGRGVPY
T1 sequence (O75909 whole entry partner): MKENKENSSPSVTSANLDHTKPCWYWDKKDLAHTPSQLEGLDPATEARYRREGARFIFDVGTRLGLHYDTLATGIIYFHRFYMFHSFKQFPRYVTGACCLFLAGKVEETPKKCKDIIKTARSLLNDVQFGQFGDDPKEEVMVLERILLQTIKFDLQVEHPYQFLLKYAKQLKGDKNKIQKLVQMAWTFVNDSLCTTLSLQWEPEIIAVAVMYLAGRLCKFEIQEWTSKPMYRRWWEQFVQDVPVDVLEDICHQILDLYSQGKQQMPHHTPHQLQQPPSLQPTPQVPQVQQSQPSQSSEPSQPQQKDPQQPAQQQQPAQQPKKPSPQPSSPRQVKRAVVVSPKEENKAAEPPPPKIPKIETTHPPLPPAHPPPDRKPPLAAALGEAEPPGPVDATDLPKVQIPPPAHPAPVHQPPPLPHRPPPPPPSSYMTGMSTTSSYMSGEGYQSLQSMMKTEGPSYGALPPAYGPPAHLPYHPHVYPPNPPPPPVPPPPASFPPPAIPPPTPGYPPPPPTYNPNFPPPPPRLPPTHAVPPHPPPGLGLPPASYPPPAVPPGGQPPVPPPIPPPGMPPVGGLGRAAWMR

| Compound | cell viability (OVCAR3 cells) | CDK12 kinase activity (CDK12+Cyclin K) | phenocopy of RBM39 CRISPR/Cas9 knockout [1] | phenocopy of CDK12 knockout (cellular and structural changes) (CDK12 knockout) |
| --- | --- | --- | --- | --- |
| Cn1cc(-n2cnc3c(NCc4nc5cc(Cl)c(Cl)cc5[nH]4)nc(N4CCOCC4)nc32)cn1 [SR4835] | dose-dependent decreases in cell viability | – | – | – |
| CN(C)C/C=C/C(=O)Nc1ccc(C(=O)N2CCC[C@@H](Nc3ncc(Cl)c(-c4c[nH]c5ccccc45)n3)C2)cc1 [THZ531] | dose-dependent decreases in cell viability | dose-dependent inhibition of kinase function | – | – |
| O=C(NS(=O)(=O)c1ccc(Br)s1)c1ccc(Cl)cc1Cl [tasisulam] | – | – | phenocopy RNA-binding motif protein 39 (RBM39) CRISPR/Cas9 knockout | phenocopy CDK12 loss |
| NS(=O)(=O)c1ccc(S(=O)(=O)Nc2cccc3c(Cl)c[nH]c23)cc1 [indisulam] | minimal effect on cell viability | does not affect CDK12 kinase activity | phenocopy RNA-binding motif protein 39 (RBM39) CRISPR/Cas9 knockout | phenocopy CDK12 loss |
| Nc1ccc(S(=O)(=O)Nc2cnc3c(Cl)cccc3n2)cc1 [CQS] | – | – | phenocopy RNA-binding motif protein 39 (RBM39) CRISPR/Cas9 knockout | phenocopy CDK12 loss |
